The target in test [1] is T1, PRC2-EZH2 (WT EZH2) (Homo sapiens, UniProt Q15910).
T1 construct: made in house
The test is described as follows: EZH2 methyltransferase inhibitory activity evaluation. To be noted: PRC2-EZH2, biotin-H3 peptide, 3H-SAM, 2 hours. It counts as biochemical.
Description: EZH2 Methyltransferase Inhibitory Activity Evaluation
(§1) Then, the residual radioactivity was measured using TopCount NXT HTS (PerkinElmer, Inc., model C384V01).

Test [2] concerns Intracellular H3K27me3 in HCT116 cells. The test is described as follows: Intracellular H3K27me3 inhibitory activity evaluation. It counts as cell-based. The following applies: Homo sapiens, HCT-116, 72 h, 3 days, AlphaLISA, read-out: Test Example 3 H3K27me3 inhibition (HCT116) IC50. A general note: In Alpha technology, singlet oxygen from a donor bead excites a nearby acceptor bead.
Description: The HCT116 cells were purchased from American Type Culture Collection (ATCC). […] Intracellular H3K27me3 was quantified using AlphaLISA H3K27me3 Cellular Detection Kit (PerkinElmer, Inc., #AL722F). The cells thus cultured in each well were washed with 100 μL of PBS. Cell-Histone Lysis buffer diluted 6-fold with PBS was added thereto at 80 μL/well, and the plate was then incubated at room temperature for 15 minutes while shaken. Then, Cell-Histone Extraction buffer was added thereto at 40 μL/well, and the plate was incubated at room temperature for 10 minutes while shaken. […] An AlphaLISA anti-H3K27me3 Acceptor beads/Biotinylated Antibody anti-Histone H3 (C-ter) mixed solution was added thereto at 3.3 μL/well, and the plate was incubated at room temperature for 60 minutes. Then, Streptavidin (SA)-coated Donor beads were added thereto at 3.3 μL/well, and the plate was incubated at room temperature for 30 minutes with the plate shielded from light.

In test [3] the target is PRC2-EZH1 (WT EZH1) (Homo sapiens, UniProt Q92800). Description: EZH1 methyltransferase inhibitory activity evaluation.
PRC2-EZH1 (WT EZH1), sequence (Q92800 whole entry): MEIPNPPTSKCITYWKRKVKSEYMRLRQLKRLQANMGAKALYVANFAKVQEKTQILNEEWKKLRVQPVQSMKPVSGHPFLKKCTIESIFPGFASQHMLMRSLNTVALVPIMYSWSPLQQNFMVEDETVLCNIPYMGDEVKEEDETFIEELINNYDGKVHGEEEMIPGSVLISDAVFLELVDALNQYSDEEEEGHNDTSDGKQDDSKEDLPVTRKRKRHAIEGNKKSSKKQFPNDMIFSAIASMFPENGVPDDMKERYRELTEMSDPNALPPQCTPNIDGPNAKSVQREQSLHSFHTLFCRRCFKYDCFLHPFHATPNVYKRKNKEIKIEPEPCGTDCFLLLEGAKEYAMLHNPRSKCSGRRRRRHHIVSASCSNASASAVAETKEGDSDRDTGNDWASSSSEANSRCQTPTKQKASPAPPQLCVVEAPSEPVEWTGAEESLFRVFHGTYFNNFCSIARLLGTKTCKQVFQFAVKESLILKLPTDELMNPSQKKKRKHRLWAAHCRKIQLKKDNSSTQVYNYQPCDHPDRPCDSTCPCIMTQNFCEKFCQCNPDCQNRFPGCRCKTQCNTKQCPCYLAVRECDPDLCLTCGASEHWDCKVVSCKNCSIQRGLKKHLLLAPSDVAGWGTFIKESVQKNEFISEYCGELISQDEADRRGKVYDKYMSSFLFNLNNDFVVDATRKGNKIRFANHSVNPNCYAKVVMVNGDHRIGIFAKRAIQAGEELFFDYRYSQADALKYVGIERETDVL
PRC2-EZH1 (WT EZH1), sequence (O75530 whole entry partner): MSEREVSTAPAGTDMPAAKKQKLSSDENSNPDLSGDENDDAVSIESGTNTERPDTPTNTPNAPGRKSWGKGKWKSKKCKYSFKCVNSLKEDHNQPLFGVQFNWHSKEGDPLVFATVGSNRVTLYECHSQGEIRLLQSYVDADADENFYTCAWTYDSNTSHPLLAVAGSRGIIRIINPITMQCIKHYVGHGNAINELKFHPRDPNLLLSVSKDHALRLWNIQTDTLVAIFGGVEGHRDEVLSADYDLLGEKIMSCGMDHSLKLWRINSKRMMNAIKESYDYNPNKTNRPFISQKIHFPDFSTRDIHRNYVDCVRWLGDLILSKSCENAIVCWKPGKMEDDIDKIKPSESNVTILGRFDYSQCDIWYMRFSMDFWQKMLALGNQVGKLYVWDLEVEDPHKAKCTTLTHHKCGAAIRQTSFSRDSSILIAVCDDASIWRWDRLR
PRC2-EZH1 (WT EZH1), sequence (Q15022 whole entry partner): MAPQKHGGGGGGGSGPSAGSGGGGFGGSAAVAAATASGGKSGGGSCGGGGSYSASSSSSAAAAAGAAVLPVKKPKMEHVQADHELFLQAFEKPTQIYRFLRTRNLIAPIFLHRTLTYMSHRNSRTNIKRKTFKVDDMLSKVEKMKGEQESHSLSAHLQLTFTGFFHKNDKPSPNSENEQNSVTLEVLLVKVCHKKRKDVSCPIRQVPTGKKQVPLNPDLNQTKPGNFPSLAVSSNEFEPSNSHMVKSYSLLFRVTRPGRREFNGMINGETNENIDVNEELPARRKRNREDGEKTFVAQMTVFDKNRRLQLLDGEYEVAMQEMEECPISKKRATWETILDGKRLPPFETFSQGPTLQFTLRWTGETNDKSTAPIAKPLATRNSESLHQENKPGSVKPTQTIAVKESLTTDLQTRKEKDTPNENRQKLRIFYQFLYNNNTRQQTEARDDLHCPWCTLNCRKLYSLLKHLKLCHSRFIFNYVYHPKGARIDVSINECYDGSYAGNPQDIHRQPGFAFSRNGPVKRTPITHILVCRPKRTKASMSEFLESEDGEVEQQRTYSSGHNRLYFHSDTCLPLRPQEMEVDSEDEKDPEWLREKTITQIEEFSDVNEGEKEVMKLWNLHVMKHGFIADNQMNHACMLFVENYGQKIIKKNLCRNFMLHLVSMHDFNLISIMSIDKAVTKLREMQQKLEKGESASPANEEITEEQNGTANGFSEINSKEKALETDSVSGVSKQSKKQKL
PRC2-EZH1 (WT EZH1), sequence (Q09028 whole entry partner): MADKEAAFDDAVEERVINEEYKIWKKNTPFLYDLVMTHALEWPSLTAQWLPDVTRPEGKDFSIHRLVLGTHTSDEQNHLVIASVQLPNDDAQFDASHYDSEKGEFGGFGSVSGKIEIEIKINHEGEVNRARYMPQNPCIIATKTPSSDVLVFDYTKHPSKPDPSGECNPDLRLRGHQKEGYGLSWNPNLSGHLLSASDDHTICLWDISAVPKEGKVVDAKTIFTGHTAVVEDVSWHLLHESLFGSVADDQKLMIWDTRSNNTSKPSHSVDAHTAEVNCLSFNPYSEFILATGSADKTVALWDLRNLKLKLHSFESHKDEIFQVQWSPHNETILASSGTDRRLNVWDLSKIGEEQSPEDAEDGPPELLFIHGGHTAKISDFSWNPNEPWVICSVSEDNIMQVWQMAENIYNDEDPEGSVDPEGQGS
PRC2-EZH1 (WT EZH1), sequence (Q6ZN18 whole entry partner): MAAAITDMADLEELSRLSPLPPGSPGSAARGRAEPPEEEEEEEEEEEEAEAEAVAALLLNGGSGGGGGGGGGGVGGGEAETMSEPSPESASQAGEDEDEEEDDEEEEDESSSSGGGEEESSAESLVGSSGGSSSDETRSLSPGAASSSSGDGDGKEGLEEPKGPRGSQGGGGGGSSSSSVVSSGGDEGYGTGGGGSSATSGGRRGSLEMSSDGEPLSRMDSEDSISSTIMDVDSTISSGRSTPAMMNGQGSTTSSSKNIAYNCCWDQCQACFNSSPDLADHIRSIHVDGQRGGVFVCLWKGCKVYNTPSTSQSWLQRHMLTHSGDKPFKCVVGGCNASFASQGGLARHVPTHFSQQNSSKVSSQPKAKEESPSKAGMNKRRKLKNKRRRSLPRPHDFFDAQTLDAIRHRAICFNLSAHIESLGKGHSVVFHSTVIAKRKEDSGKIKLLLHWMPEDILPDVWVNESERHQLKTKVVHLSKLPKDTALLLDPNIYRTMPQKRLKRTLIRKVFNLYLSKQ
Description: EZH1 Methyltransferase Inhibitory Activity Evaluation
as §1

T1 sequence (Q15910 whole entry): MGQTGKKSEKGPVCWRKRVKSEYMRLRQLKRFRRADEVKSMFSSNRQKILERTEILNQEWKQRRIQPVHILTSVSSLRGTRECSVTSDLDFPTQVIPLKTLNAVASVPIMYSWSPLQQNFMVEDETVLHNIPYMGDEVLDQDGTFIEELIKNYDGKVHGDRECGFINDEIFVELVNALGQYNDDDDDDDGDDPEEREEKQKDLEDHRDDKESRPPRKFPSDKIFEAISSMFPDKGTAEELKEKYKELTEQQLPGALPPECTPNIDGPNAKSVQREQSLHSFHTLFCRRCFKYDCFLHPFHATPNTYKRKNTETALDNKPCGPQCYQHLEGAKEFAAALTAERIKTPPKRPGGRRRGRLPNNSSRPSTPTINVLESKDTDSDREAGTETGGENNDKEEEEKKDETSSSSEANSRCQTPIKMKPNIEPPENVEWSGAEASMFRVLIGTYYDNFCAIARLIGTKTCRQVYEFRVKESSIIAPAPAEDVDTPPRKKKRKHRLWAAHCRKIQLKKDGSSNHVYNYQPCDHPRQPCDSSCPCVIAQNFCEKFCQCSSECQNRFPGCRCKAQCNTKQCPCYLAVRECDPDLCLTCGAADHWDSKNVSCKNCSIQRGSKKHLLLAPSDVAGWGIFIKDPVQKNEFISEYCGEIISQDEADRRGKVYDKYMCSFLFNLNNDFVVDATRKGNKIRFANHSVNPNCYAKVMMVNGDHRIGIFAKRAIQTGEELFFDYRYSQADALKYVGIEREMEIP
T1 sequence (O75530 whole entry partner): as the sequence (O75530 whole entry partner) above
T1 sequence (Q15022 whole entry partner): as the sequence (Q15022 whole entry partner) above

As for `CCN[C@H]1CC[C@H](C2(C)Oc3c(Br)cc(C(=O)NCc4c(C)cc(C)[nH]c4=O)c(C)c3O2)CC1` (relative stereo) [Example 19, 7-Bromo-N-[(4,6-dimethyl-2-oxo-1,2-dihydropyridin-3-yl)methyl]-2-[trans-4-(ethylamino)cyclohexyl]-2,4-dimethyl-1,3-benzodioxole-5-carboxamide], the 50% inhibitory concentration (IC50) – broadly, the concentration that gives 50% inhibition – in test [1] amounted to 25 nM; in test [2], 11 nM; in test [3] it was 28 nM.

As for `CCN(C)[C@H]1CC[C@H](C2(C)Oc3c(Br)cc(C(=O)NCc4c(C)cc(C)[nH]c4=O)c(C)c3O2)CC1` (relative stereo) [Example 20, 7-Bromo-N-[(4,6-dimethyl-2-oxo-1,2-dihydropyridin-3-yl)methyl]-2-[trans-4-[N-ethyl(N-methyl)amino]cyclohexyl]-2,4-dimethyl-1,3-benzodioxole-5-carboxamide], the values for the IC50 in test [1], in test [2] and in test [3] were 17 nM, 2.8 nM and 23 nM, respectively.

In the case of `CCN(CC)[C@H]1CC[C@H](C2(C)Oc3c(Br)cc(C(=O)NCc4c(C)cc(C)[nH]c4=O)c(C)c3O2)CC1` (relative stereo) [Example 21, 7-Bromo-2-[trans-4-(diethylamino)cyclohexyl]-N-[(4,6-dimethyl-2-oxo-1,2-dihydropyridin-3-yl)methyl]-2,4-dimethyl-1,3-benzodioxole-5-carboxamide], the IC50 was determined as 18 nM in test [1], 10 nM in test [2] and 60 nM in test [3].

Take `Cc1cc(C)c(CNC(=O)c2ccc3c(c2C)OC(C)([C@H]2CC[C@H](N(C)C)CC2)O3)c(=O)[nH]1` (relative stereo) [Example 23, 2-[trans-4-(Dimethylamino)cyclohexyl]-N-[(4,6-dimethyl-2-oxo-1,2-dihydropyridin-3-yl)methyl]-2,4-dimethyl-1,3-benzodioxole-5-carboxamide]: the IC50 in test [1] is 5.6 nM; in test [2], 2.8 nM; in test [3], 4.1 nM.

Turning to `Cc1cc(C)c(CNC(=O)c2cc(Br)c3c(c2C)OC(C)([C@H]2CC[C@H](CN(C)C)CC2)O3)c(=O)[nH]1` (relative stereo) [Example 24, 7-Bromo-2-[trans-4-[(dimethylamino)methyl]cyclohexyl]-N-[(4,6-dimethyl-2-oxo-1,2-dihydropyridin-3-yl)methyl]-2,4-dimethyl-1,3-benzodioxole-5-carboxamide], the IC50 is 12 nM in test [1], 19 nM in test [2] and 140 nM in test [3].

As for `Cc1cc(C)c(CNC(=O)c2cc(Br)c3c(c2C)OC(C)(C[C@H]2CC[C@@H](N(C)C)CC2)O3)c(=O)[nH]1` (relative stereo) [Example 27, 7-Bromo-2-[[cis-4-(dimethylamino)cyclohexyl]methyl]-N-[(4,6-dimethyl-2-oxo-1,2-dihydropyridin-3-yl)methyl]-2,4-dimethyl-1,3-benzodioxole-5-carboxamide], the IC50 in test [1] is 22 nM; in test [2], 3.8 nM; in test [3] it was 23 nM.

Take `Cc1cc(C)c(CNC(=O)c2cc(Br)c3c(c2C)OC(C)(C[C@H]2CC[C@H](N(C)C)CC2)O3)c(=O)[nH]1` (relative stereo) [Example 28, 7-Bromo-2-[[trans-4-(dimethylamino)cyclohexyl]methyl]-N-[(4,6-dimethyl-2-oxo-1,2-dihydropyridin-3-yl)methyl]-2,4-dimethyl-1,3-benzodioxole-5-carboxamide]: the IC50 in test [1] turned out to be 20 nM; in test [2], 14 nM; in test [3], 78 nM.

Regarding `CN[C@H]1CC[C@H](C2(C)Oc3c(Cl)cc(C(=O)NCc4c(C)cc(C)[nH]c4=O)c(C)c3O2)CC1` (relative stereo) [Example 32, 7-Chloro-N-[(4,6-dimethyl-2-oxo-1,2-dihydropyridin-3-yl)methyl]-2,4-dimethyl-2-[trans-4-(methylamino)cyclohexyl]-1,3-benzodioxole-5-carboxamide], the IC50 in test [1] came out at 17 nM; in test [2], 4.8 nM; in test [3] it was 30 nM.

In the case of `Cc1cc(C)c(CNC(=O)c2cc(Cl)c3c(c2C)OC(C)([C@H]2CC[C@H](N(C)C=O)CC2)O3)c(=O)[nH]1` (relative stereo) [Example 33, 7-Chloro-N-[(4,6-dimethyl-2-oxo-1,2-dihydropyridin-3-yl)methyl]-2-[trans-4-[formyl(methyl)amino]cyclohexyl]-2,4-dimethyl-1,3-benzodioxole-5-carboxamide], the IC50 in test [1] was determined as 28 nM; in test [2] it was 14 nM; in test [3] it was 260 nM.

For the molecule `COc1cc(C)[nH]c(=O)c1CNC(=O)c1cc(Cl)c2c(c1C)OC(C)([C@H]1CC[C@H](N(C)C)CC1)O2` (relative stereo) [Example 36, 7-Chloro-2-[trans-4-(dimethylamino)cyclohexyl]-N-[(4-methoxy-6-methyl-2-oxo-1,2-dihydropyridin-3-yl)methyl]-2,4-dimethyl-1,3-benzodioxole-5-carboxamide], the IC50 was 13 nM in test [1], 1.6 nM in test [2] and 13 nM in test [3].

As to `CCc1cc(C)[nH]c(=O)c1CNC(=O)c1cc(Cl)c2c(c1C)OC(C)([C@H]1CC[C@H](N(C)C)CC1)O2` (relative stereo) [Example 37, 7-Chloro-2-[trans-4-(dimethylamino)cyclohexyl]-N-[(4-ethyl-6-methyl-2-oxo-1,2-dihydropyridin-3-yl)methyl]-2,4-dimethyl-1,3-benzodioxole-5-carboxamide], the IC50 came out at 19 nM in test [1], 1.6 nM in test [2] and 28 nM in test [3].

On to `Cc1cc(C)c(CNC(=O)c2cc(F)c3c(c2C)OC(C)([C@H]2CC[C@H](N(C)C)CC2)O3)c(=O)[nH]1` (relative stereo) [Example 46, 2-[trans-4-(Dimethylamino)cyclohexyl]-N-[(4,6-dimethyl-2-oxo-1,2-dihydropyridin-3-yl)methyl]-7-fluoro-2,4-dimethyl-1,3-benzodioxole-5-carboxamide], for which the figures for the IC50 in test [1], in test [2] and in test [3] were 6.7 nM, 3.4 nM and 72 nM, respectively.

Turning to `Cc1cc(C)c(CNC(=O)c2cc(C)c3c(c2C)OC(C)([C@H]2CC[C@H](N(C)C)CC2)O3)c(=O)[nH]1` (relative stereo) [Example 47, 2-[trans-4-(Dimethylamino)cyclohexyl]-N-[(4,6-dimethyl-2-oxo-1,2-dihydropyridin-3-yl)methyl]-2,4,7-trimethyl-1,3-benzodioxole-5-carboxamide], the IC50 in test [1] amounted to 10 nM; in test [2] it was 1.4 nM; in test [3] it was 22 nM.

For the molecule `COc1cc(C(=O)NCc2c(C)cc(C)[nH]c2=O)c(C)c2c1OC(C)([C@H]1CC[C@H](N(C)C)CC1)O2` (relative stereo) [Example 50, 2-[trans-4-(Dimethylamino)cyclohexyl]-N-[(4,6-dimethyl-2-oxo-1,2-dihydropyridin-3-yl)methyl]-7-methoxy-2,4-dimethyl-1,3-benzodioxole-5-carboxamide], the figures for the IC50 in test [1], in test [2] and in test [3] were 20 nM, 7.1 nM and 53 nM, respectively.

`Cc1cc(C)c(CNC(=O)c2cc(Cl)c3c(c2Cl)OC(C)([C@H]2CC[C@H](N(C)C)CC2)O3)c(=O)[nH]1` (relative stereo) [Example 53, 4,7-Dichloro-2-[trans-4-(dimethylamino)cyclohexyl]-N-[(4,6-dimethyl-2-oxo-1,2-dihydropyridin-3-yl)methyl]-2-methyl-1,3-benzodioxole-5-carboxamide]: the 50% inhibitory concentration (IC50) came to 13 nM in test [1], 0.63 nM in test [2] and 26 nM in test [3].

Take `Cc1cc(C)c(CNC(=O)c2cc(C3=CCCC3)c3c(c2C)OC(C)([C@H]2CC[C@H](N(C)C)CC2)O3)c(=O)[nH]1` (relative stereo) [Example 58, 7-(Cyclopenten-1-yl)-2-[trans-4-(dimethylamino)cyclohexyl]-N-[(4,6-dimethyl-2-oxo-1,2-dihydropyridin-3-yl)methyl]-2,4-dimethyl-1,3-benzodioxole-5-carboxamide]: the results for the IC50 in test [1], in test [2] and in test [3] were 10 nM, 2.9 nM and 4.4 nM, respectively.

For the molecule `Cc1cc(C)c(CNC(=O)c2cc(-c3ccccc3)c3c(c2C)OC(C)([C@H]2CC[C@H](N(C)C)CC2)O3)c(=O)[nH]1` (relative stereo) [Example 59, 2-[trans-4-(Dimethylamino)cyclohexyl]-N-[(4,6-dimethyl-2-oxo-1,2-dihydropyridin-3-yl)methyl]-2,4-dimethyl-7-phenyl-1,3-benzodioxole-5-carboxamide], the IC50 in test [1] is 8.7 nM; in test [2], 1.8 nM; in test [3] it was 5.7 nM.

Consider `Cc1cc(C)c(CNC(=O)c2cc(C3=CCCCC3)c3c(c2C)OC(C)([C@H]2CC[C@H](N(C)C)CC2)O3)c(=O)[nH]1` (relative stereo) [Example 60, 7-(Cyclohexen-1-yl)-2-[trans-4-(dimethylamino)cyclohexyl]-N-[(4,6-dimethyl-2-oxo-1,2-dihydropyridin-3-yl)methyl]-2,4-dimethyl-1,3-benzodioxole-5-carboxamide], for which the IC50 came out at 14 nM in test [1], 3.7 nM in test [2] and 7.3 nM in test [3].

On to `CCN1CCN(c2ccc(-c3cc(C(=O)NCc4c(C)cc(C)[nH]c4=O)c(C)c4c3OC(C)([C@H]3CC[C@H](N(C)C)CC3)O4)cn2)CC1` (relative stereo) [Example 61, 2-[trans-4-(Dimethylamino)cyclohexyl]-N-[(4,6-dimethyl-2-oxo-1,2-dihydropyridin-3-yl)methyl]-7-[6-(4-ethylpiperazin-1-yl)-3-pyridyl]-2,4-dimethyl-1,3-benzodioxole-5-carboxamide], for which the IC50 amounted to 21 nM in test [1], 10 nM in test [2] and 8 nM in test [3].

The values above are taken from patent US10954219B2, “1,3-benzodioxole derivative” (DAIICHI SANKYO COMPANY, LIMITED, priority 2014, dated 2021).
